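Grown in 96-well plates, cells were treated for 48 hours with each compound at five concentrations. Insufficient inhibition: endpoint recorded as highest concentration tested. The concentration for full growth arrest is given as TGI.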
How the values were obtained:
Experiment in all cases: NCI tumour cell line growth inhibition, 48 h
[1] = tested on: 786-0 renal
[2] = tested on: A498 renal
[3] = tested on: A549 NSCLC
[4] = tested on: ACHN renal
[5] = tested on: CAKI-1 renal
[6] = tested on: COLO 205 colon
[7] = tested on: DLD-1 colon
[8] = tested on: DMS 114 small cell lung
[9] = tested on: DMS 273 small cell lung
[10] = tested on: EKVX NSCLC
[11] = tested on: HCC-2998 colon
[12] = tested on: HCT-116 colon
[13] = tested on: HCT-15 colon
[14] = tested on: HOP-18 NSCLC
[15] = tested on: HOP-62 NSCLC
[16] = tested on: HOP-92 NSCLC
[17] = tested on: HT29 colon
[18] = tested on: IGROV1 ovarian
[19] = tested on: K-562 leukemia
[20] = tested on: KM12 colon
[21] = tested on: KM20L2 colon
[22] = tested on: LXFL 529 NSCLC
[23] = tested on: M14 melanoma
[24] = tested on: M19-MEL melanoma
[25] = tested on: MALME-3M melanoma
[26] = tested on: MOLT-4 leukemia
[27] = tested on: NCI-H226 lung
[28] = tested on: NCI-H23 lung
[29] = tested on: NCI-H460 lung
[30] = tested on: NCI-H522 lung
[31] = tested on: OVCAR-4 ovarian
[32] = tested on: OVCAR-5 ovarian
[33] = tested on: RPMI-8226 leukemia
[34] = tested on: RXF 393 renal
[35] = tested on: SF-268 CNS
[36] = tested on: SF-295 CNS
[37] = tested on: SF-539 CNS
[38] = tested on: SK-MEL-2 melanoma
[39] = tested on: SK-MEL-28 melanoma
[40] = tested on: SK-MEL-5 melanoma
[41] = tested on: SK-OV-3 ovarian
[42] = tested on: SN12C renal
[43] = tested on: SNB-19 CNS
[44] = tested on: SNB-75 CNS
[45] = tested on: SNB-78 CNS
[46] = tested on: SR leukemia
[47] = tested on: SW-620 colon
[48] = tested on: TK-10 renal
[49] = tested on: U251 CNS
[50] = tested on: UACC-257 melanoma
[51] = tested on: UACC-62 melanoma
[52] = tested on: UO-31 renal

Measured: TGI

CC(=O)OCC1OC(OC2C(COC(C)=O)OC(Sc3ccccc3C)C(OC(C)=O)C2OC(C)=O)C(OC(C)=O)C(OC(C)=O)C1OC(C)=O (configuration not stated)
> 100 µM: all assays above
